Results from US9839634B2 (priority 2012, dated 2017).
Read-outs that look alike come from different tables or passages of the source.

Tests used:
[1] = system: Staphylococcus aureus ATCC12600; type: cell-based
Protocol: Spontaneous resistance frequencies in Staphylococcus aureus were determined by plating defined numbers of cells of Staphylococcus aureus ATCC12600 (1×10^8-1×10^12 cfu/plate) on Mueller-Hinton agar containing rifampin, myxopyronin B, or both, and counting numbers of colonies after 14 h at 37° C. Experiments were performed using (a) rifampin at 1×, 2×, or 4× the minimum inhibitory concentration of rifampin administered individually; (b) myxopyronin B at lx, 2×, or 4× the minimum inhibitory concentration of myxopyronin B administered individually; or (c) both rifampin at 1×, 2×, or 4× the minimum inhibitory concentration of rifampin administered individually and myxopyronin B at 1×, 2×, or 4× the minimum inhibitory concentration of myxopyronin B administered individually. All experiments were performed four times, using four different starting cultures.

[2] = system: Escherichia coli D21f2tolC; type: cell-based; details: 2xMIC; for resistance rate per generation: MSS-MLE
Protocol: Spontaneous resistance frequencies in Escherichia coli were determined by plating defined numbers of cells of Escherichia coli D21f2tolC (1×10^8-1×10^12 cfu/plate) on LB agar containing rifampin, myxopyronin B, or both, and counting numbers of colonies after 24 h at 37° C. Experiments were performed using (a) rifampin at 2× the minimum inhibitory concentration of rifampin administered individually; (b) myxopyronin B at 2× the minimum inhibitory concentration of myxopyronin B administered individually; or (c) both rifampin at 2× the minimum inhibitory concentration of rifampin administered individually and myxopyronin B at 2× the minimum inhibitory concentration of myxopyronin B administered individually. All experiments were performed at least five times, using at least five different starting cultures. Resistance rates and 95% confidence intervals were calculated using the Ma-Sandri-Sarkar Maximum Likelihood Estimator (MSS-MLE; [Ma, W, Sandri, GvH., Sarkar, S. (1992. ) J. Appl. Probab. 29, 255-267; Sarkar, S., Ma, W., Sandri, GvH. (1992) Genetica 85, 173-179]) as implemented on the Fluctuation Analysis Calculator (FALCOR; http://www.keshaysingh.org/protocols/FALCOR.html; [Hall, B., Ma, C., Liang, P., Singh, K (2009) Bioinformatics 25, 1564-1565]). Sampling correction was performed as in [Stewart, F., Gordon, D., Levin, B. (1990) Genetics 124, 175-185; Jones, M. (1993) Mutat. Res. 292, 187-189].

Structure (SMILES) | spontaneous resistance frequency ([1]; 2xMIC) | spontaneous resistance frequency ([1]; 1xMIC) | spontaneous resistance frequency ([1]; 4xMIC) | spontaneous resistance frequency ([1]; mean of 1x, 2x, 4xMIC) | spontaneous resistance frequency [2] | resistance rate per generation [2]
CCc1c(Cl)c(O)c(Cl)c(O)c1C(=O)O[C@H]1[C@H](O)[C@H](OC)[C@H](OC/C2=C\C=C\C[C@H](O)/C(C)=C/[C@H](CC)[C@@H](O[C@@H]3OC(C)(C)[C@@H](OC(=O)C(C)C)[C@H](O)[C@@H]3O)/C(C)=C/C(C)=C/C[C@@H]([C@@H](C)O)OC2=O)O[C@@H]1C [lipiarmycin A3] | 3×10^−8 |  |  |  |  | 
CCCC/C(C)=C/C=C(\C)C(=O)c1c(O)cc([C@H](C)CC/C=C/NC(=O)OC)oc1=O [myxopyronin B] | 7 × 10^−8 | 4 × 10^−8 | 7 × 10^−8 | 6×10^−8 | 8×10^−10 | 3×10^−10 per generation
CO[C@H]1/C=C/O[C@@]2(C)Oc3c(C)c(O)c4c(O)c(c(/C=N/N5CCN(C)CC5)c(O)c4c3C2=O)NC(=O)/C(C)=C\C=C\[C@H](C)[C@H](O)[C@@H](C)[C@@H](O)[C@@H](C)[C@H](OC(C)=O)[C@@H]1C [rifampin] | 6×10^−8 | 5 × 10^−8 | 6 × 10^−8 | 6×10^−8 | 4×10^−9 | 1×10^−9 per generation
